Data as given in ChEMBL document CHEMBL5532646, “Discovery of 4-(N-dithiobenzyl piperazine)-1,8-naphthalimide as a potent multi-target antitumor agent with good efficacy, limited toxicity, and low resistance” (Eur J Med Chem, 2024).
Activity calls are given as the source filed them. The calls are words filed in the database; no cut-off is given here.

Legend:
A549/CDDP = experiment: Antiproliferative activity against human A549/DDP cells incubated for 48 hrs by MTT assay; format: functional, cell-based
A549 = experiment: Antiproliferative activity against human A549 cells incubated for 48 hrs by MTT assay; format: functional, cell-based
[1] = Toxicity in nude mouse model xenografted with human T24 cells assessed as pathological change in spleen at 5 to 15 mg/kg, ip administered once every two days for 21 days; format: organism-based, T-24; conditions: in vivo, 504 h, dose 5-15 mg/kg, time 21 day
HepG2 [2] = experiment: Antiproliferative activity against human HepG2 cells incubated for 48 hrs by MTT assay; format: functional, cell-based; conditions: HepG2, 48 h
[3] = Toxicity in nude mouse model xenografted with human T24 cells assessed as pathological change in heart at 5 to 15 mg/kg, ip administered once every two days for 21 days; format: organism-based, T-24; conditions: in vivo, 504 h, dose 5-15 mg/kg, time 21 day
T-24 [4] = experiment: Antiproliferative activity against human T24 cells xenografted in nude mouse model assessed as tumor inhibition rate at 5 mg/kg, ip administered once every two days for 21 days relative to control; format: functional; conditions: T-24, 504 h, time 21 day
[5] = Toxicity in nude mouse model xenografted with human SK-OV-3 cells assessed as pathological change in heart at 15 mg/kg, ip administered once every two days for 21 days; format: organism-based; conditions: in vivo, 504 h, time 21 day
[6] = Toxicity in nude mouse model xenografted with human T24 cells assessed as pathological change in lung at 5 to 15 mg/kg, ip administered once every two days for 21 days; format: organism-based, T-24; conditions: in vivo, 504 h, dose 5-15 mg/kg, time 21 day
[7] = Toxicity in nude mouse model xenografted with human HepG2 cells assessed as pathological change in spleen at 5 to 15 mg/kg, ip administered once every two days for 21 days; format: organism-based; conditions: in vivo, 504 h, dose 5-15 mg/kg, time 21 day
T-24 [8] = experiment: Antiproliferative activity against human T24 cells incubated for 48 hrs by MTT assay; format: functional, cell-based; conditions: T-24, 48 h
T-24 [9] = experiment: Antiproliferative activity against human T24 cells xenografted in nude mouse model assessed as tumor inhibition rate at 15 mg/kg, ip administered once every two days for 21 days relative to control; format: functional; conditions: T-24, 504 h, time 21 day
[10] = Toxicity in nude mouse model xenografted with human T24 cells assessed as pathological change in liver at 5 to 15 mg/kg, ip administered once every two days for 21 days; format: organism-based, T-24; conditions: in vivo, 504 h, dose 5-15 mg/kg, time 21 day
SK-OV-3 [11] = experiment: Antiproliferative activity against human SK-OV-3 cells xenografted in nude mouse model assessed as tumor inhibition rate at 15 mg/kg, ip administered once every two days for 21 days relative to control; format: functional; conditions: SK-OV-3, 504 h, time 21 day
SK-OV-3 [12] = experiment: Antiproliferative activity against human SK-OV-3 cells xenografted in nude mouse model assessed as tumor inhibition rate administered intraperitoneally once every two days for 21 days; format: functional, cell-based; conditions: dose 15.0 mg/kg, route ip, time 21.0 day
[13] = Toxicity in nude mouse model xenografted with human HepG2 cells assessed as pathological change in heart at 5 to 15 mg/kg, ip administered once every two days for 21 days; format: organism-based; conditions: in vivo, 504 h, dose 5-15 mg/kg, time 21 day
HepG2 [14] = experiment: Antiproliferative activity against human HepG2 cells xenografted in nude mouse model assessed as tumor inhibition rate at 5 mg/kg, ip administered once every two days for 21 days relative to control; format: functional; conditions: HepG2, 504 h, time 21 day
[15] = Toxicity in nude mouse model xenografted with human SK-OV-3 cells assessed as pathological change in spleen at 15 mg/kg, ip administered once every two days for 21 days; format: organism-based; conditions: in vivo, 504 h, time 21 day
[16] = Toxicity in nude mouse model xenografted with human HepG2 cells assessed as pathological change in liver at 5 to 15 mg/kg, ip administered once every two days for 21 days; format: organism-based; conditions: in vivo, 504 h, dose 5-15 mg/kg, time 21 day
[17] = Toxicity in nude mouse model xenografted with human SK-OV-3 cells assessed as pathological change in lung at 15 mg/kg, ip administered once every two days for 21 days; format: organism-based; conditions: in vivo, 504 h, time 21 day
[18] = Toxicity in nude mouse model xenografted with human SK-OV-3 cells assessed as pathological change in liver at 15 mg/kg, ip administered once every two days for 21 days; format: organism-based; conditions: in vivo, 504 h, time 21 day
[19] = Toxicity in nude mouse model xenografted with human HepG2 cells assessed as pathological change in lung at 5 to 15 mg/kg, ip administered once every two days for 21 days; format: organism-based; conditions: in vivo, 504 h, dose 5-15 mg/kg, time 21 day
SK-OV-3 [20] = experiment: Antiproliferative activity against human SK-OV-3 cells incubated for 48 hrs by MTT assay; format: functional, cell-based; conditions: SK-OV-3, 48 h
HepG2 [21] = experiment: Antiproliferative activity against human HepG2 cells xenografted in nude mouse model assessed as tumor inhibition rate at 15 mg/kg, ip administered once every two days for 21 days relative to control; format: functional; conditions: HepG2, 504 h, time 21 day
MGC-803 = experiment: Antiproliferative activity against human MGC-803 cells incubated for 48 hrs by MTT assay; format: functional, cell-based; conditions: MGC-803, 48 h

CNCCCN1C(=O)c2cccc3c(N4CCN(C(=S)SCc5ccccc5)CC4)ccc(c23)C1=O
Activity (A549/CDDP): Active
Activity (A549): Active
Activity [1]: Non-Toxic
IC50 (HepG2 [2]): 1540 nM
Activity [3]: Non-Toxic
inhibition in vivo at 5 mg/kg (T-24 [4]): 55.1%
Activity [5]: Non-Toxic
Activity [6]: Non-Toxic
Activity [7]: Non-Toxic
IC50 (T-24 [8]): 590 nM
inhibition in vivo at 15 mg/kg (T-24 [9]): 57.1%
Activity [10]: Non-Toxic
inhibition in vivo at 15 mg/kg (SK-OV-3 [11]): 53.1%
inhibition (SK-OV-3 [12]): Dose-Dependent Effect
Activity [13]: Non-Toxic
inhibition in vivo at 5 mg/kg (HepG2 [14]): 53%
Activity [15]: Non-Toxic
Activity [16]: Non-Toxic
Activity [17]: Non-Toxic
Activity [18]: Non-Toxic
Activity [19]: Non-Toxic
IC50 (SK-OV-3 [20]): 1070 nM
inhibition in vivo at 15 mg/kg (HepG2 [21]): 58.8%
IC50 (MGC-803): 3040 nM
